Reference: patent US20120028358A1, “METHOD FOR INCREASING RETROVIRAL INFECTIVITY” (priority 2010, published 2012)

Test system: rat PMVEC
Assay: Gamma-retroviral infection efficiency of PMVEC (percent fluorescent cells by FACS)
Type: cell-based
Conditions: 1 μmol/L; MMLV with ecotropic, amphotropic, VSV-G pantropic envelope
Protocol: Cell cultures: Phoenix Retroviral Expression System ecotropic and amphotropic packaging cells were purchased from Orbigen, Inc. (San Diego, Calif.). […] Rat pulmonary microvascular endothelial cells (PMVEC), were obtained from our cell culture core at the University of South Alabama (King J, et al. Structural and functional characteristics of lung macro and microvascular endothelial phenotypes. Microvascular Res. 2004, March, 67(2). 139-151). Human glioblastoma cells (U87MG), and human mammary carcinoma cells (T47D) were obtained from ATCC. All cells were cultured in DMEM, 10% FBS, 2 mmol L-Glutamine and used for experiments at passages 4-9. All cells were grown in humidified incubators at 37° C. in 5% CO2. Cells were harvested by 0.05% trypsin/0.53 mM EDTA digestion, washed, re-suspended in cultured medium and analyzed directly by FACScan in the University of South Alabama Flow Cytometry Core. For cell cycle analysis cellular DNA was stained with […] of propridium iodide for 20 minutes as described elsewhere (48) and then analyzed by FACScan.
Vectors and delivery systems: pBMN-GFP (Orbigen, Inc., San Diego, Calif.), a retroviral vector that expresses GFP driven by the MMLV's promoter in Phoenix and other cells was used. […]

Question: With `CC#C[C@]1(O)CC[C@H]2[C@@H]3CCC4=CC(=O)CCC4=C3[C@@H](c3ccc(N(C)C)cc3)C[C@@]21C` [mifepristone, 11-beta-(4-dimethylaminophenyl)-17-beta-hydroxy-17-alpha-(1-propynyl)-estra-4,9-dien-3-one] as the compound, how does the “Percentage of infected cells” value read?
Answer: doubled
